In PMC7946002, “The development of novel cytochrome P450 2J2 (CYP2J2) inhibitor and the underlying interaction between inhibitor and CYP2J2” (Journal of Enzyme Inhibition and Medicinal Chemistry, 2021):

How the values were obtained:
Human recombinant CYP2J2 [1] = biological target: T1, Human recombinant CYP2J2 (Homo sapiens, UniProt P51589); test: Inhibition activity of Piperine derivatives towards CYP2J2 (BnXPI probe, IC50); format: biochemical; settings: for IC50: CYP2J2 3.75 pmol/mL, BnXPI 4 μM, 30 min, triplicate, mean ± SD, read-out: Inhibitory activity (IC50) CYP2J2; for increase of inhibition activity compared with Piperine: IC50 versus Piperine
T1 construct: purchased Cypex (Scotland, UK)
T1 sequence (P51589 1-502): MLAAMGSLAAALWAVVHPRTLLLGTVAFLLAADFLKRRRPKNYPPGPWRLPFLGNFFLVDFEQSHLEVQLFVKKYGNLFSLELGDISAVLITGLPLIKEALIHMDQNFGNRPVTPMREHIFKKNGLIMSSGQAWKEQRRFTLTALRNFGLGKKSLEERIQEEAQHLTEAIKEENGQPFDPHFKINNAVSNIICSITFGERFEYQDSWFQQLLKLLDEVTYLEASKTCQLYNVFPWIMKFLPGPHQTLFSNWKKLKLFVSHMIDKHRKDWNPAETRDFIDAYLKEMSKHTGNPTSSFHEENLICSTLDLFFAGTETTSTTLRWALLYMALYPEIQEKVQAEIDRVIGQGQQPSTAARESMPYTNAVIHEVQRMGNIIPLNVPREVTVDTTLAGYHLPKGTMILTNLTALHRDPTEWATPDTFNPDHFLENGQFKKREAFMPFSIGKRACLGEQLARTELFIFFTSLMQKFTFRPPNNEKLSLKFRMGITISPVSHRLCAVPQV
Method: In our previous study, BnXPI was developed to be the first selective fluorescent probe for CYP2J2[24]. Thus, with the help of the fast and sensitive advantages of fluorescence technology, the potential inhibitory effect of 108 herbal medicines (Table S1) towards CYP2J2 was screened. In brief, in the standard incubation system (100 mM phosphoric acid buffer, pH 7.4, NADPH generate system, BnXPI and extract of herbal medicines), BnXPI was set at 4 μM, and the concentration of CYP2J2 was 0.01 nmol/mL, after the pre-incubation of BnXPI and herbal medicines (final concentration was 20 μg/mL) for 3 min, NADP^+ was added to initiate the reaction. After additional 30 min (mins) incubation, 100 μL ice acetonitrile was added to terminate the reaction and followed a 20000 g centrifugation at 4 °C, the supernatant was collected and assay on a Synergy H1 Microplate Reader (Bio-Tek). The blank solvent replaces the extract of herbal medicines was set as the control group. According to the screening method mentioned above, various concentration of Piperine derivatives were added into our standard incubation system and incubated with CYP2J2, probe BnXPI for 30 min. The concentration of CYP2J2 was set at 3.75 pmol/mL, the concentration of BnXPI was 4 μM. The control group was added blank solvent instead of the inhibitors.

Human recombinant CYP2J2 [2] = biological target: T1, Human recombinant CYP2J2; test: Inhibition kinetic study towards CYP2J2 (Lineweaver-Burk and Dixon plots); format: biochemical; settings: for Ki: BnXPI 0–8 μM; for inhibition type towards CYP2J2: intersection point in Lineweaver–Burk plot
Method: In order to clarify the inhibition type of compound 9a, 9k, and 9l towards CYP2J2, the inhibition kinetics were also performed. Briefly, the inhibition activity of target compounds towards the metabolism kinetic of BnPXI (0–8 μM) mediated by CYP2J2 was determinated under the different concentrations of inhibitors. At last, Lineweaver–Burk and Dixon plots were used to fit the data as previously described[25]^,[26]. The inhibition kinetic type was evaluated by determining the intersection point in the Lineweaver–Burk plots. […] (1) v=Vmax/1+Km/[S](1+[I]/Ki) (2) v=Vmax/(1+Km/[S])(1+[I]/Ki) (3) v=Vmax/(1+Km/[S]+[I]/Ki) (4) v=Vmax/Km/[S](1+[I]/Ki)+(1+[I]/αKi)

Row | IC50 (Human recombinant CYP2J2 [1]) [nM] | Ki (Human recombinant CYP2J2 [2]) [nM] | increase of inhibition activity compared with Piperine (Human recombinant CYP2J2 [1]) | inhibition type towards CYP2J2 (Human recombinant CYP2J2 [2]) | SMILES
1 | 1580 ± 220 | – | – | – | O=C(/C=C/C=C/c1ccc2c(c1)OCO2)N1CCCC1 [9c, (2E,4E)-5-(benzo[d][1,3]dioxol-5-yl)-1-(pyrrolidin-1-yl)penta-2,4-dien-1-one]
2 | 4720 ± 730 | – | – | – | O=C(/C=C/C=C/c1ccc2c(c1)OCO2)NC1CC1 [9b, (2E,4E)-5-(benzo[d][1,3]dioxol-5-yl)-N-cyclopropylpenta-2,4-dienamide]
3 | 50 ± 5 | 74 | about 10 folds | competitive inhibition model | O=C(/C=C/C=C/c1ccc2c(c1)OCO2)NCc1ccc(F)cc1 [9l, (2E,4E)-5-(benzo[d][1,3]dioxol-5-yl)-N-(4-fluorobenzyl)penta-2,4-dienamide]
4 | 40 ± 8 | 110 | about 10 folds | competitive inhibition model | CC(C)CN(CC(C)C)C(=O)/C=C/C=C/c1ccc2c(c1)OCO2 [9k, (2E,4E)-5-(benzo[d][1,3]dioxol-5-yl)-N,N-diisobutylpenta-2,4-dienamide]
5 | 11800 ± 1470 | – | – | – | CN(C)CCNC(=O)/C=C/C=C/c1ccc2c(c1)OCO2 [9j, (2E,4E)-5-(benzo[d][1,3]dioxol-5-yl)-N-(2-(dimethylamino)ethyl)penta-2,4-dienamide]

Second part, the compound before the results:

Row | SMILES | IC50 (Human recombinant CYP2J2 [1]) [nM] | Ki (Human recombinant CYP2J2 [2]) [nM] | increase of inhibition activity compared with Piperine (Human recombinant CYP2J2 [1]) | inhibition type towards CYP2J2 (Human recombinant CYP2J2 [2])
6 | O=C(/C=C/C=C/c1ccc2c(c1)OCO2)N1CCCCC1 [9a, (2E,4E)-5-(benzo[d][1,3]dioxol-5-yl)-1-(piperidin-1-yl)penta-2,4-dien-1-one] | 440 ± 50 | 500 | – | –
7 | O=C(/C=C/C=C/c1ccc2c(c1)OCO2)N1CCOCC1 [9e, (2E,4E)-5-(benzo[d][1,3]dioxol-5-yl)-1-morpholinopenta-2,4-dien-1-one] | 12000 ± 1350 | – | – | –
8 | C[C@H]1COCCN1C(=O)/C=C/C=C/c1ccc2c(c1)OCO2 [9g, (2E,4E)-5-(benzo[d][1,3]dioxol-5-yl)-1-((S)-3-methylmorpholino)penta-2,4-dien-1-one] | 2250 ± 560 | – | – | –
9 | C[C@@H]1COCCN1C(=O)/C=C/C=C/c1ccc2c(c1)OCO2 [9f, (2E,4E)-5-(benzo[d][1,3]dioxol-5-yl)-1-((R)-3-methylmorpholino)penta-2,4-dien-1-one] | 4660 ± 560 | – | – | –
10 | O=C(/C=C/C=C/c1ccc2c(c1)OCO2)NC12CC3CC(CC(C3)C1)C2 [9d, (2E,4E)-N-((3s,5s,7s)-adamantan-1-yl)-5-(benzo[d][1,3]dioxol-5-yl)penta-2,4-dienamide] | 9330 ± 1060 | – | – | –
11 | O=C(/C=C/C=C/c1ccc2c(c1)OCO2)N1CCSCC1 [9h, (2E,4E)-5-(benzo[d][1,3]dioxol-5-yl)-1-thiomorpholinopenta-2,4-dien-1-one] | 750 ± 80 | – | – | –
12 | O=C(/C=C/C=C/c1ccc2c(c1)OCO2)N1CCS(=O)(=O)CC1 [9i, (2E,4E)-5-(benzo[d][1,3]dioxol-5-yl)-1–(1,1-dioxidothiomorpholino)penta-2,4-dien-1-one] | 1240 ± 450 | – | – | –
